Measurements: paper PMC3783656 (Bioorganic & medicinal chemistry letters, 2013)
≈ marks a conversion by molar mass, not a printed value. Where two headings read alike, the source gives them in different places.

Legend:
CK1δ [1] = target: T1, CK1δ (Homo sapiens, UniProt P48730); experiment: CK1δ inhibition, Reaction Biology Corp.; assay type: biochemical; settings: for IC50: read-out: IC50 CK1δ
CK1ε = CK1ε (Homo sapiens, UniProt P49674); experiment: CK1ε inhibition, Reaction Biology Corporation; assay type: biochemical
Sequence of CK1ε (P49674 whole entry): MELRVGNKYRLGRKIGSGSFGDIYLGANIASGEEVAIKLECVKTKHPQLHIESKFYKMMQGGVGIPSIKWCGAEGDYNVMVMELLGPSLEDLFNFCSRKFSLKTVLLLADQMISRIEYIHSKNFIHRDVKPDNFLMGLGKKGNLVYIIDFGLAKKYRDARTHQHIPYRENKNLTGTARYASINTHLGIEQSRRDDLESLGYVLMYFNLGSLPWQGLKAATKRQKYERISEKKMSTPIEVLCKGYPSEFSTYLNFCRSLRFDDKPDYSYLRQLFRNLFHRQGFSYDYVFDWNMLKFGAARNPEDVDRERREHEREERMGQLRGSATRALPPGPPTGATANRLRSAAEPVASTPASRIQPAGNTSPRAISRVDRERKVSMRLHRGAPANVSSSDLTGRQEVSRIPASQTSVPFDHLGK

[2] = system: human melanoma A375 cell line; experiment: MTT assay against A375 melanoma cells; assay type: cell-based
[3] = Solubility in DMEM/10% FBS; assay type: physicochemical
cytochrome P450 1A2 = cytochrome P450 1A2 (Homo sapiens, UniProt P05177); experiment: Cyp assay, 1A2; assay type: in vitro ADME; settings: at 10 μM
Sequence of cytochrome P450 1A2 (P05177 whole entry, species assumed): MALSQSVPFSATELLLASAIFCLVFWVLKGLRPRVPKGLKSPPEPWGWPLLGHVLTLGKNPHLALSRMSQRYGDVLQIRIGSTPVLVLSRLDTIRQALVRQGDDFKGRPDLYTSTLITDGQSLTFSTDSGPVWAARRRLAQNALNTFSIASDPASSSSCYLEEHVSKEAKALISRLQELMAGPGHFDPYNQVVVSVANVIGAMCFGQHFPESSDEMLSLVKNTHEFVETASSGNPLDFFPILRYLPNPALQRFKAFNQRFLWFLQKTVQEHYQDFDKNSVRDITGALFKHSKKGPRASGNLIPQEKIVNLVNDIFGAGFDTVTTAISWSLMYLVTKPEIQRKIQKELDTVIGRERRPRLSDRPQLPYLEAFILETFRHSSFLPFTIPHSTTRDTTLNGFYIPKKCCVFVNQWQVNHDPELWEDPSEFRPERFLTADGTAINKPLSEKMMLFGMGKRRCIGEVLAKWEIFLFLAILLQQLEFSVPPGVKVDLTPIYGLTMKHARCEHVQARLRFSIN

Mouse PK studies = assay type: in vivo; settings: IV dosing, 1 mg/kg, 10/10/80 DMSO/Tween/water
[4] = Microsome stability, rat liver microsomes
[5] = Microsome stability, human liver microsomes
[6] = Microsome stability, mouse liver microsomes
CK1δ [7] = target: T1, CK1δ; experiment: CK1δ inhibition, in-house kinase inhibition assay; assay type: biochemical; settings: read-out: IC50 CK1δ
Solubility in PBS buffer = assay type: physicochemical
CK1 [8] = settings: cited from earlier work
CK1 [9] = settings: cited from earlier work; remark: listed apart in the source
442 kinases = experiment: DiscoverRX KINOMEscan analysis of 442 kinases; assay type: binding; settings: 10 μM, KINOMEscan of 442 kinases
[10] = data obtained by Reaction Biology Corp.
[11] = read-out: MTT assay A375 EC50, human A375 melanoma cell line

T1 sequence (P48730 whole entry): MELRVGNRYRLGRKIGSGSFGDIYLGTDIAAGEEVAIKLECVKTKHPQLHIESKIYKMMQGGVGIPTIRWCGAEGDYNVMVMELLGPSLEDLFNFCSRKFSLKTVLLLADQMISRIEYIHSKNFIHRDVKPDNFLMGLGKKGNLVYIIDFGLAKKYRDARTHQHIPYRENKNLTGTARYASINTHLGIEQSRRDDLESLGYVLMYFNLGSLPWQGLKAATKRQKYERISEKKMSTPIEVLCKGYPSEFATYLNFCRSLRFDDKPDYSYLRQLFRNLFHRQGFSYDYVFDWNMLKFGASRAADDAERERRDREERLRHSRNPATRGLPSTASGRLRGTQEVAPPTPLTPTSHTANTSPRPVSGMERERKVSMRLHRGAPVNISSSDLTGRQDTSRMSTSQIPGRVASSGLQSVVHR

SMILES: O=[N+]([O-])c1cccc2[nH]c(CNc3nc(N4CCOCC4)nc4c3ncn4-c3ccoc3)nc12 [SR-2007]
- IC50 (CK1δ [1]; [10]): 19 nM

SMILES: CN1CCN(c2nc(NCc3nc4ccccc4[nH]3)c3ncn(-c4ccsc4)c3n2)CC1 [SR-1294]
- IC50 (CK1δ [1]; [10]): 11 nM

SMILES: c1ccc2[nH]c(CNc3nc(N4CCOCC4)nc4c3ncn4-c3ccsc3)nc2c1 [SR-653234]
- IC50 (CK1δ [1]; [10]): 160 nM
- IC50 (CK1ε; read-out: CK1ε Inh IC50, data obtained by Reaction Biology Corporation): 540 nM
- EC50 [2, 11]: 111 nM
- Solubility [3]: 28 µM (≈ 12.1 µg/mL)
- Inhibition of 1A2 (cytochrome P450 1A2): e 86% Inhibition of 1A2 at 10 μM.
- AUC (Mouse PK studies): 1.75 µM·h
- Cl (Mouse PK studies): 2.2 mL/min/kg
- Cmax (Mouse PK studies): 3.2 µM
- T1/2 (Mouse PK studies): 43.8 min
- Microsome stability T1/2 (rat) ([4]; rat liver microsomes, second value of h/r/m): 6 min
- Microsome stability T1/2 (human) ([5]; human liver microsomes, first value of h/r/m): 11 min
- Microsome stability T1/2 (mouse) ([6]; mouse liver microsomes, third value of h/r/m): 1 min

SMILES: Fc1ccc2[nH]c(CNc3nc(N4CCOCC4)nc4c3ncn4-c3ccsc3)nc2c1 [SR-1275]
- IC50 (CK1δ [1]; [10]): 50 nM

SMILES: FC(F)(F)c1ccc2[nH]c(CNc3nc(N4CCOCC4)nc4c3ncn4-c3ccsc3)nc2c1 [SR-1273]
- IC50 (CK1δ [1]; [10]): 13 nM

SMILES: CC1CN(c2nc(NCc3nc4ccccc4[nH]3)c3ncn(-c4ccsc4)c3n2)CCN1 (stereo not drawn) [SR-2915]
- IC50 (CK1δ [7]): 199 nM

SMILES: Clc1ccc2[nH]c(CNc3nc(N4CCNCC4)nc4c3ncn4-c3ccsc3)nc2c1 [SR-2876]
- IC50 (CK1δ [7]): 51 nM
- Solubility (Solubility in PBS buffer): 54 µM (≈ 25.2 µg/mL)

SMILES: O=[N+]([O-])c1cccc2[nH]c(CNc3nc(N4CCOCC4)nc4c3ncn4-c3cc(F)cc(F)c3)nc12 [SR-2368]
- IC50 (CK1δ [7]): 75 nM

SMILES: c1ccc2[nH]c(CNc3nc(N4CCNCC4)nc4c3ncn4-c3ccsc3)nc2c1 [SR-1292]
- IC50 (CK1δ [1]; [10]): 3 nM
- Solubility (Solubility in PBS buffer): 75 µM (≈ 32.4 µg/mL)

SMILES: COc1ccc2[nH]c(CNc3nc(N4CCOCC4)nc4c3ncn4-c3ccsc3)nc2c1 [SR-1279]
- IC50 (CK1δ [1]; [10]): 17 nM

SMILES: O=[N+]([O-])c1cccc2[nH]c(CNc3nc(N4CCOCC4)nc4c3ncn4-c3cccc(F)c3)nc12 [SR-2364]
- IC50 (CK1δ [7]): 57 nM

SMILES: CC(C)(C)c1cc(NC(=O)Nc2ccc(-c3cn4c(n3)sc3cc(OCCN5CCOCC5)ccc34)cc2)no1 [AC220, reference compound]
- Activity against CK1δ (CK1δ [1]): inactive
- Activity against CK1ε (CK1ε): inactive
- EC50 ([2]; Homo sapiens, A-375, read-out: MTT assay A375 EC50): 1570 nM

SMILES: FC(F)(F)c1cccc2[nH]c(CNc3nc(N4CCOCC4)nc4c3ncn4-c3ccsc3)nc12 [SR-1272]
- IC50 (CK1δ [1]; [10]): 128 nM

SMILES: NC1CCN(c2nc(NCc3nc4cc(Cl)ccc4[nH]3)c3ncn(-c4ccsc4)c3n2)CC1 [SR-2875]
- IC50 (CK1δ [7]): 119 nM

SMILES: NC(=O)c1ccc(-c2nc(-c3ccc4c(c3)OCCO4)c(-c3ccccn3)[nH]2)cc1 [Compound D4476]
- EC50 [2, 11]: 10000 nM
- Activity in cell-based assays (CK1 [9]; cell-based assays): 20 to 50 µM

SMILES: Clc1ccc2[nH]c(CNc3nc(N4CCOCC4)nc4c3ncn4-c3ccoc3)nc2c1 [SR-2850]
- IC50 (CK1δ [1]; [10]): 23 nM

SMILES: Clc1ccc2[nH]c(CNc3nc(N4CCOCC4)nc4c3ncn4-c3ccsc3)nc2c1 [SR-1274]
- IC50 (CK1δ [1]; [10]): 105 nM

SMILES: NCCNS(=O)(=O)c1ccc(Cl)c2ccncc12 [CKI-7]
- IC50 (CK1 [8]; read-out: CK1 inhibition): 6000 nM

SMILES: CCN(CC)CCNC(=O)c1c(C)[nH]c(/C=C2\C(=O)Nc3ccc(F)cc32)c1C [Sunitinib, sunitinib, reference compound]
- half-life ([4]; rat, liver microsomes): 21 min
- half-life ([5]; human, liver microsomes): 54 min
- half-life ([6]; mouse, liver microsomes): 21 min

SMILES: COc1cc(OC)c(C=C2C(O)=Nc3ccccc32)c(OC)c1 [IC261]
- IC50 (CK1 [8]; read-out: IC50 for CK1 inhibition in vitro, in vitro): 1000 nM
- IC50 (CK1 [9]; read-out: IC50 for CK1 inhibition in cells, in cells): 25000 nM

SMILES: c1ccc2[nH]c(CNc3nc(N4CCOCC4)nc4c3ncn4C3CCCC3)nc2c1 [SR-2149]
- IC50 (CK1δ [1]; [10]): 57 nM

SMILES: Nc1nccc(-c2c(-c3ccc(F)cc3)ncn2C2CCCCC2)n1 [PF-670462, reference compound]
- EC50 [2, 11]: > 10000 nM
- Number of kinases inhibited ≥90% (442 kinases): 44

SMILES: CS(=O)(=O)c1ccc2[nH]c(CNc3nc(N4CCOCC4)nc4c3ncn4-c3ccsc3)nc2c1 [SR-2797]
- IC50 (CK1δ [1]; [10]): 10 nM

SMILES: O=[N+]([O-])c1ccc2[nH]c(CNc3nc(N4CCOCC4)nc4c3ncn4-c3ccsc3)nc2c1 [SR-1278]
- IC50 (CK1δ [1]; [10]): 21 nM

SMILES: O=[N+]([O-])c1cccc2[nH]c(CNc3nc(N4CCOCC4)nc4c3ncn4-c3ccc(F)cc3)nc12 [SR-2362]
- IC50 CK1δ (CK1δ [1]; [10]): essentially inactive
- IC50 (CK1δ [1]; [10]): > 1000 nM

SMILES: N#Cc1ccc2[nH]c(CNc3nc(N4CCOCC4)nc4c3ncn4-c3ccsc3)nc2c1 [SR-1276]
- IC50 (CK1δ [1]; [10]): 11 nM

SMILES: CS(=O)(=O)c1cccc2[nH]c(CNc3nc(N4CCOCC4)nc4c3ncn4-c3ccsc3)nc12 [SR-2805]
- IC50 (CK1δ [1]; [10]): 16 nM

SMILES: CC[C@H](CO)Nc1nc(Nc2cccc(-c3ccccn3)c2)c2ncn(C(C)C)c2n1 [(R)-DRF053]
- IC50 (CK1 [8]; read-out: CK1 inhibition, dual CK1/CDK inhibitor): 14 nM

SMILES: O=C(Nc1nc2ccc(C(F)(F)F)cc2[nH]1)c1csc(NC(=O)c2ccccc2OC(F)(F)F)n1 [Bischof-5, reference compound]
- EC50 [2, 11]: 2300 nM
